Laboratory results published in patent US5411942A, “Peptide derivative, pharmaceutical preparation containing it and method for treatment of glaucoma” (Carlbiotech Ltd. A/S, priority 1989, dated 1995).
Peptide text beside a SMILES is read from it. * marks the point of attachment. Acm = CC(=O)NC*

How the values were obtained:
rabbit's eye = conditions: 5% solution as eye drops in rabbit's eye, even after treatment over a month
Salmonella strains = conditions: Ames test on Salmonella strains
blood pressure = conditions: e.g. at 10 mg/kg in rats
mice = test: Intravenous tolerance in mice; type: in vivo; conditions: doses as high as 40 mg/kg intravenously
rats [1] = test: Subcutaneous toxicity in rats, also prolonged for a month; type: in vivo; conditions: subcutaneous administration of similar doses in rats, also prolonged treatment for a month
[2] = test system: antibodies in serum samples; conditions: serum of rats treated subcutaneously for one month in large doses
anterior sclera = conditions: Ussing chamber, glutathione bicarbonate Ringer's solution
rats [3] = test: Intravenous tolerance in rats; type: in vivo; conditions: doses as high as 40 mg/kg intravenously
[4] = test system: experimentally hypertensive rabbit eye; test: Antagonizing effect on stress induced intraocular pressure in the rabbit eye, treatment simultaneous with stress; type: in vivo; conditions: for Change in pressure / Pressure after 5 1/5 / Initial Pressure: Example 9; for Change in pressure / Pressure after 5 1/5: 11 stress units, peptides as drops of 0.5% solution 3× daily; for Initial Pressure: baseline
Method: (§1) The main feature of this clinical model is a stress induced elevation of the intraocular pressure in the rabbit eye above the initial and normal value. The stress is exerted, i.e. applied, in the form of measuring the pressure (at 12 hour intervals) with the help of a SHIOTZ-Tonometer, which is loaded with 7.5 grams.
(§2) Adult rabbits of random breed and sex in groups of n=3-10 were employed. Weight 2,5-3,0 kg. The peptide was a freeze-dried powder, and was applied to the rabbit eye as a powder, or as drops, dissolved in 0.9% NaCl aqueous solution. Positive control was the commercial glaucoma drugs, either timololor pilocarpin, and negative control was 0.9% NaCl solution in water.
20 mg peptide was dissolved in 0.6 ml 0.9% NaCl aqueous solution and applied in aliquots of 60 μl four times daily over a period of 2.5 days.
The treatment was started at the beginning of the experiment simultaneously with stress units. Five stress units were applied at 12 hour intervals.
Stress units were applied at 12 hour intervals over a period of 51/2 days, i.e. 11 stress units. The peptides were applied 3× daily over this period as drops of a 0.5% solution in 0.9% NaCl in aqueous solutions.
Stress units were applied at 12 hour intervals over a period of 51/2 days, i.e. 11 stress units. The peptides were applied 3× daily over this period as drops of a 1.0% solution in 0.9% NaCl in aqueous solution.

[5] = test system: stress induced ocular hypertensive rabbits; test: Stress induced ocular hypertension in the rabbit eye, treatment started after pressure elevation; type: in vivo; conditions: for IOP lowering efficiency in relation to Timolol / Initial Pressure (Unstressed) / Pressure after 5 days of stress (Treatment starts) / Pressure after 10 days of stress (5 days of treatment) / Change in IOP: Example 6; for Initial Pressure (Unstressed): baseline before stress; for Pressure after 5 days of stress (Treatment starts) / Pressure after 5 days: before treatment; for Pressure after 10 days of stress (5 days of treatment): stress continued; for Change in IOP: day 10 versus day 5; for Pressure after 5 days / Initial Pressure / Pressure after 10 days (5 days of treatment): Example 8; for Pressure after 5 days: after 5 day stress induction; for Initial Pressure: baseline; for Pressure after 10 days (5 days of treatment): 2 drops four times for 5 days
Method: as §1, §2
on stress induced ocular hypertensive rabbits. […] The amount of peptide per treatment was thus 3.75 mg which corresponds on a molar basis to the amount of Timolol used per treatment.
The local treatment was started on day 5 of glaucoma induction (i.e. afer 10 stress units), and the stress, that is the trauma, was continued during the treatment with the peptide.
A 1% and 0.1% solution of the peptide in 0.9% NaCl aqueous solution was applied four times (2 drops each time) for 5 days after an initial 5 day stress induction period. (Stress units at 12 hour intervals).

[6] = test system: water load induced hypertension in the rabbit eye; test: Water load model, intraocular pressure in rabbits' eyes; type: in vivo; conditions: single dose; for AUC: area under Δ IOP-time curve
Method: The findings of intraocular pressure lowering effects in the stress induced rabbit model has been confirmed and further studied by using another elevated eye pressure rabbit model. In this model, the widely applied water load model, elevation of the intraocular pressure is achieved by injecting a large volume of sterile water intraperitoneally into the rabbits. Following onset of eye drop treatment in one eye while the other eye is treated with saline placebo, the intraocular pressure of both eyes is then measured at various intervals and the pressure difference between the eyes is taken as an expression of the pharmaceutical effect. In these experiments, pilocarpine, a well-known pressure lowering cholinergic agent, was used as positive control.
The studies utilized a "water load" animal model.
Thirty minutes before drug solution installation, rabbits were injected intraperitonally with 60 ml/kg of sterile distilled water for injection (30° C.) spiked with an antibiotic mixture (Sigma P9032).
At time zero, 50 μl of a drug solution was instilled to one eye and an equal volume of a saline solution was instilled to the other eye. The intraocular pressure in each eye was monitored at the time points indicated. The change in intraocular pressure (IOP) at each time point is computed by subtracting the IOP in the dosed eye from that in the undosed eye.
From these plots was assessed the maximal IOP effect, the time to reach this and the time for returning to a zero or insignificant level of intraocular pressure lowering effect. These figures may be taken as a measure of potency and duration of effect. As a measure of the full pharmaceutical effect at various dose levels was taken a sum figure of the area under the curves (AUC).
A 0.5% solution of the peptides or 2.6% pilocarpine nitrate (positive control) in 0.9% NaCl aqueous solution was applied in one eye and 0.9% Nacl, also acting as negative control in the other eye, an IOP was measured in both eyes for 3 hours.
A 0.25%, 0.5% of 1.0% solution of the peptides in 0.9% aqueous NaCl solution was applied in one eye and 0.9% NaCl to the other eye and IOP was measured in both eyes for 3 hours.

[7] = test system: cultured bovine trabecular meshwork cells; test: Cultured bovine trabecular meshwork cells incubated with peptide; type: cell-based
Source text: The mechanism, or mechanisms, by way of which the peptides according to the invention work, is so far not known in detail and may be of hitherto unknown types or related to some known mechanisms. With the apparent lack of β-blocking effects, other known mechanisms could be effects on the enzyme carbo-anhydrase or effects on aqueous humour outflow. Some indications of mechanisms of the latter type have been found in in vitro studies. […] The significant decrease in glycosamine uptake with normal synthesis of glycoproteins like fibronectin is taken to indicate an influence on the formation of glycosamino glycans, an important parameter in the regulation of outflow of aqueous humour from the eye.

[8] = test system: freshly excised bulbar conjunctiva; conditions: Ussing chamber, glutathione bicarbonate Ringer's solution
[9] = Example 11, 2.6% pilocarpine nitrate
[10] = cell cultures incubated with the peptide
[11] = 0.5% peptide, 3.75 mg powder 4× daily

## CC(=O)NCSC[C@H](NC(=O)[C@@H](NC(=O)CNC(=O)[C@H](CC(C)C)NC(=O)[C@@H](N)CC(N)=O)C(C)C)C(N)=O [AsnLeuGlyValCys(Acm)NH2, H-Asn-Leu-Gly-Val-Cys(Acm)-NH2] (H-NLGVC(Acm)-NH2)
rabbit's eye
  anaesthetic effects: neither anaesthetic effects
  irritant effects: nor irritant effects
Salmonella strains
  mutagenicity classification: non-mutagenic
Blood pressure
  effect on blood pressure: no effect on blood pressure
mice
  tolerance of intravenous doses: easily tolerated
Rats [1]
  toxic or adverse effects: no toxic or adverse effects
[2]
  detection of antibodies by ELISA: not been possible to detect such antibodies
Anterior sclera
  penetration through tissue: found to penetrate scleral tissue
Rats [3]
  tolerance of intravenous doses: easily tolerated

## CC(C)(C)NC[C@H](O)COc1nsnc1N1CCOCC1 [Timolol, reference compound]
[4]
  Change in pressure: +1 mm Hg
  Pressure after 5 1/5: 16 mm Hg
  Initial Pressure: 15 mm Hg
[5]; 0.25% Timolol
  IOP lowering efficiency in relation to Timolol: 100%
  Pressure after 10 days of stress (5 days of treatment): 19.5 mm Hg
  Change in IOP: -10.5 mm Hg
[5]; 0.25% Timolol group
  Initial Pressure (Unstressed): 19.0 mm Hg
  Pressure after 5 days of stress (Treatment starts): 30.0 mm Hg

## CC[C@@H]1C(=O)OC[C@@H]1Cc1cncn1C [pilocarpine nitrate, reference compound]
[6]; [9]
  Duration of effect: 120 min
  Max. response Δ IOP: -5.0 mm Hg
  Time to max. response: 30 min

## H-Asn-Gly-Gly-Val-Cys(Acm)-NH2 (H-NGGVC(Acm)-NH2; also: acetate salt) [AsnGlyGlyValCys(Acm)NH2]
[7]; [10]
  cell growth and ultrastructure: normal growth and ultrastructure
  effect on collagen and fibronectin synthesis: no effect
[7]; cultured bovine trabecular meshwork cells
  uptake of glycosamines: marked and significant decrease
[8]
  penetration through tissue: found to penetrate both tissues
[4]; Example 7, 20 mg in 0.6 ml saline, 60 μl four times daily for 2.5 days, five stress units
  Change in IOP After 21/2 days, Absolute: -4.7 mm/Hg
[4]; Example 7, relative to 0.9% saline
  Change in IOP After 21/2 days, Relative to Control: -9.2 mm/Hg
[4]
  Change in pressure: 0 mm Hg
  Pressure after 5 1/5: 14 mm Hg
  Initial Pressure: 14 mm Hg
[6]; Example 11, 0.5% solution
  Duration of effect: 120 min
  Time to max. response: 30 min
[6]; Example 11, 0.5% solution, IOP followed 3 hours
  Max. response Δ IOP: -5.0 mm Hg
[6]; Example 12, Conc. 0.25%
  Duration of effect: 80 min
  Max resp. Δ IOP: -2.0 mm Hg
  Time to max. resp.: 30 min
  AUC: 160 mm Hg×min
[6]; Example 12, Conc. 0.5%
  Duration of effect: 120 min
  Max resp. Δ IOP: -5.0 mm Hg
  Time to max. resp.: 30 min
  AUC: 360 mm Hg×min
[6]; Example 12, Conc. 1.0%
  Duration of effect: 120 min
  Max resp. Δ IOP: -4.0 mm Hg
  Time to max. resp.: 30 min
  AUC: 410 mm Hg×min
[5]; 0.5% peptide
  IOP lowering efficiency in relation to Timolol: 150%
  Change in IOP: -15.5 mm Hg
[5]; 0.5% peptide group
  Pressure after 5 days of stress (Treatment starts): 32.0 mm Hg
[5]; [11]
  Pressure after 10 days of stress (5 days of treatment): 16.5 mm Hg
  Initial Pressure (Unstressed): 19.0 mm Hg
[5]; 0.1% peptide group
  Pressure after 5 days: 28 mm Hg
  Initial Pressure: 18 mm Hg
[5]; 0.1% solution
  Pressure after 10 days (5 days of treatment): 15.5 mm Hg
[5]; 1% peptide group
  Pressure after 5 days: 32 mm Hg
  Initial Pressure: 21 mm Hg
[5]; 1% solution
  Pressure after 10 days (5 days of treatment): 18 mm Hg
Anterior sclera
  penetration through tissue: found to penetrate both tissues
